Test results as given in ChEMBL document CHEMBL1154382, “Preliminary SAR analysis of novel antiproliferative N(6),5'-bis-ureidoadenosine derivatives” (2009).

Experiments:
Type in all cases: functional
Details in all cases: values are per cent of control
[1] = tested on: HL-60(TB); assay: Antiproliferative activity against human HL-60(TB) cells at 10 uM assessed as cell growth inhibition relative to control
[2] = tested on: CAKI-1; assay: Antiproliferative activity against human Caki1 cells at 10 uM assessed as cell growth inhibition relative to control
[3] = tested on: NCI-H460; assay: Antiproliferative activity against human NCI-H460 cells at 10 uM assessed as cell growth inhibition relative to control
[4] = tested on: SW-620; assay: Antiproliferative activity against human SW620 cells at 10 uM assessed as cell growth inhibition relative to control
[5] = tested on: DU-145; assay: Antiproliferative activity against human DU145 cells at 10 uM assessed as cell growth inhibition relative to control
[6] = tested on: PC-3; assay: Antiproliferative activity against human PC3 cells at 10 uM assessed as cell growth inhibition relative to control
[7] = tested on: BT-549; assay: Antiproliferative activity against human BT549 cells at 10 uM assessed as cell growth inhibition relative to control
[8] = tested on: SF-539; assay: Antiproliferative activity against human SF539 cells at 10 uM assessed as cell growth inhibition relative to control
[9] = tested on: U-251; assay: Antiproliferative activity against human U251 cells at 10 uM assessed as cell growth inhibition relative to control
[10] = tested on: NCI-H23; assay: Antiproliferative activity against human NCI-H23 cells at 10 uM assessed as cell growth inhibition relative to control
[11] = tested on: OVCAR-4; assay: Antiproliferative activity against human OVCAR4 cells at 10 uM assessed as cell growth inhibition relative to control
[12] = tested on: KM12; assay: Antiproliferative activity against human KM12 cells at 10 uM assessed as cell growth inhibition relative to control
[13] = tested on: RXF 393; assay: Antiproliferative activity against human RXF393 cells at 10 uM assessed as cell growth inhibition relative to control
[14] = tested on: UO-31; assay: Antiproliferative activity against human UO31 cells at 10 uM assessed as cell growth inhibition relative to control
[15] = tested on: M14; assay: Antiproliferative activity against human M14 cells at 10 uM assessed as cell growth inhibition relative to control
[16] = tested on: UACC-62; assay: Antiproliferative activity against human UACC62 cells at 10 uM assessed as cell growth inhibition relative to control
[17] = tested on: MDA-MB-231; assay: Antiproliferative activity against human MDA-MB-231 cells at 10 uM assessed as cell growth inhibition relative to control
[18] = tested on: COLO 205; assay: Antiproliferative activity against human COLO205 cells at 10 uM assessed as cell growth inhibition relative to control
[19] = tested on: EKVX; assay: Antiproliferative activity against human EKVX cells at 10 uM assessed as cell growth inhibition relative to control
[20] = tested on: SF-268; assay: Antiproliferative activity against human SF268 cells at 10 uM assessed as cell growth inhibition relative to control
[21] = tested on: HCC 2998; assay: Antiproliferative activity against human HCC2998 cells at 10 uM assessed as cell growth inhibition relative to control
[22] = tested on: A498; assay: Antiproliferative activity against human A498 cells at 10 uM assessed as cell growth inhibition relative to control
[23] = tested on: K562; assay: Antiproliferative activity against human K562 cells at 10 uM assessed as cell growth inhibition relative to control
[24] = tested on: A549; assay: Antiproliferative activity against human A549 cells at 10 uM assessed as cell growth inhibition relative to control
[25] = tested on: HCT-116; assay: Antiproliferative activity against human HCT116 cells at 10 uM assessed as cell growth inhibition relative to control
[26] = tested on: HT-29; assay: Antiproliferative activity against human HT-29 cells at 10 uM assessed as cell growth inhibition relative to control
[27] = tested on: HOP-92; assay: Antiproliferative activity against human HOP92 cells at 10 uM assessed as cell growth inhibition relative to control
[28] = tested on: SK-OV-3; assay: Antiproliferative activity against human SKOV3 cells at 10 uM assessed as cell growth inhibition relative to control
[29] = tested on: SK-MEL-2; assay: Antiproliferative activity against human SK-MEL-2 cells at 10 uM assessed as cell growth inhibition relative to control
[30] = tested on: SK-MEL-28; assay: Antiproliferative activity against human SK-MEL-28 cells at 10 uM assessed as cell growth inhibition relative to control
[31] = tested on: NCI-H522; assay: Antiproliferative activity against human NCI-H522 cells at 10 uM assessed as cell growth inhibition relative to control
[32] = Antiproliferative activity against human Hs 578T cells at 10 uM assessed as cell growth inhibition relative to control
[33] = tested on: UACC-257; assay: Antiproliferative activity against human UACC257 cells at 10 uM assessed as cell growth inhibition relative to control
[34] = tested on: ACHN; assay: Antiproliferative activity against human ACHN cells at 10 uM assessed as cell growth inhibition relative to control
[35] = Antiproliferative activity against human […] cells at 10 uM assessed as cell growth inhibition relative to control
[36] = tested on: OVCAR-5; assay: Antiproliferative activity against human OVCAR5 cells at 10 uM assessed as cell growth inhibition relative to control
[37] = tested on: SN12C; assay: Antiproliferative activity against human SN12C cells at 10 uM assessed as cell growth inhibition relative to control
[38] = tested on: MDA-MB-468; assay: Antiproliferative activity against human MDA-MB-468 cells at 10 uM assessed as cell growth inhibition relative to control
[39] = tested on: IGROV-1; assay: Antiproliferative activity against human IGROV1 cells at 10 uM assessed as cell growth inhibition relative to control
[40] = tested on: SNB-75; assay: Antiproliferative activity against human SNB75 cells at 10 uM assessed as cell growth inhibition relative to control
[41] = tested on: SNB-19; assay: Antiproliferative activity against human SNB19 cells at 10 uM assessed as cell growth inhibition relative to control
[42] = tested on: CCRF-CEM; assay: Antiproliferative activity against human CCRF-CEM cells at 10 uM assessed as cell growth inhibition relative to control
[43] = tested on: Malme-3M; assay: Antiproliferative activity against human MALME-3M cells at 10 uM assessed as cell growth inhibition relative to control
[44] = tested on: OVCAR-3; assay: Antiproliferative activity against human OVCAR-3 cells at 10 uM assessed as cell growth inhibition relative to control
[45] = tested on: NCI-H322M; assay: Antiproliferative activity against human NCI-H322M cells at 10 uM assessed as cell growth inhibition relative to control
[46] = tested on: NCI-H226; assay: Antiproliferative activity against human NCI-H226 cells at 10 uM assessed as cell growth inhibition relative to control
[47] = tested on: HOP-62; assay: Antiproliferative activity against human HOP62 cells at 10 uM assessed as cell growth inhibition relative to control
[48] = tested on: OVCAR-8; assay: Antiproliferative activity against human OVCAR8 cells at 10 uM assessed as cell growth inhibition relative to control
[49] = tested on: LOX IMVI; assay: Antiproliferative activity against human LOXIMVI cells at 10 uM assessed as cell growth inhibition relative to control
[50] = tested on: MOLT-4; assay: Antiproliferative activity against human MOLT4 cells at 10 uM assessed as cell growth inhibition relative to control
[51] = tested on: T47D; assay: Antiproliferative activity against human T47D cells at 10 uM assessed as cell growth inhibition relative to control
[52] = tested on: HCT-15; assay: Antiproliferative activity against human HCT15 cells at 10 uM assessed as cell growth inhibition relative to control
[53] = tested on: TK-10; assay: Antiproliferative activity against human TK10 cells at 10 uM assessed as cell growth inhibition relative to control
[54] = tested on: 786-0; assay: Antiproliferative activity against human 786-0 cells at 10 uM assessed as cell growth inhibition relative to control
[55] = tested on: MCF7; assay: Antiproliferative activity against human MCF7 cells at 10 uM assessed as cell growth inhibition relative to control
[56] = tested on: SK-MEL-5; assay: Antiproliferative activity against human SK-MEL-5 cells at 10 uM assessed as cell growth inhibition relative to control
[57] = tested on: SF-295; assay: Antiproliferative activity against human SF295 cells at 10 uM assessed as cell growth inhibition relative to control

Compound: CCOC(=O)C[C@H]1[C@@H](O[Si](C)(C)C(C)(C)C)[C@H](n2cnc3c(N)ncnc32)O[C@@H]1CO
- growth, % of control at 10 µM [1]: 89%
- growth, % of control at 10 µM [2]: 92%
- growth, % of control at 10 µM [3]: 101%
- growth, % of control at 10 µM [4]: 103%
- growth, % of control at 10 µM [5]: 93%
- growth, % of control at 10 µM [6]: 85%
- growth, % of control at 10 µM [7]: 79%
- growth, % of control at 10 µM [8]: 91%
- growth, % of control at 10 µM [9]: 99%
- growth, % of control at 10 µM [10]: 107%
- growth, % of control at 10 µM [11]: 97%
- growth, % of control at 10 µM [12]: 109%
- growth, % of control at 10 µM [13]: 112%
- growth, % of control at 10 µM [14]: 72%
- growth, % of control at 10 µM [15]: 99%
- growth, % of control at 10 µM [16]: 73%
- growth, % of control at 10 µM [17]: 90%
- growth, % of control at 10 µM [18]: 109%
- growth, % of control at 10 µM [19]: 75%
- growth, % of control at 10 µM [20]: 98%
- growth, % of control at 10 µM [21]: 104%
- growth, % of control at 10 µM [22]: 98%
- growth, % of control at 10 µM [23]: 84%
- growth, % of control at 10 µM [24]: 100%
- growth, % of control at 10 µM [25]: 94%
- growth, % of control at 10 µM [26]: 98%
- growth, % of control at 10 µM [27]: 81%
- growth, % of control at 10 µM [28]: 103%
- growth, % of control at 10 µM [29]: 106%
- growth, % of control at 10 µM [30]: 112%
- growth, % of control at 10 µM [31]: 92%
- growth, % of control at 10 µM [32]: 102%
- growth, % of control at 10 µM [33]: 105%
- growth, % of control at 10 µM [34]: 102%
- growth, % of control at 10 µM [35]: 99%
- growth, % of control at 10 µM [36]: 101%
- growth, % of control at 10 µM [37]: 85%
- growth, % of control at 10 µM [38]: 94%
- growth, % of control at 10 µM [39]: 90%
- growth, % of control at 10 µM [40]: 75%
- growth, % of control at 10 µM [41]: 103%
- growth, % of control at 10 µM [42]: 83%
- growth, % of control at 10 µM [43]: 93%
- growth, % of control at 10 µM [44]: 98%
- growth, % of control at 10 µM [45]: 91%
- growth, % of control at 10 µM [46]: 90%
- growth, % of control at 10 µM [47]: 91%
- growth, % of control at 10 µM [48]: 103%
- growth, % of control at 10 µM [49]: 92%
- growth, % of control at 10 µM [50]: 74%
- growth, % of control at 10 µM [51]: 82%
- growth, % of control at 10 µM [52]: 91%
- growth, % of control at 10 µM [53]: 94%
- growth, % of control at 10 µM [54]: 97%
- growth, % of control at 10 µM [55]: 89%
- growth, % of control at 10 µM [56]: 81%
- growth, % of control at 10 µM [57]: 97%
